According to patent US8916575B2, “Quinazoline derivatives for the treatment of viral infections and further diseases” (Janssen R&D Ireland, priority 2011, dated 2014):

Experiments:
[1] = test system: human TLR7 mutant (dIRR2); assay: TLR7 mutant (deletion in second leucine-rich repeat) NFκB-luc cellular reporter assay; format: cell-based; design: unit not given here; conditions: HEK293 NFκB-luc reporter, mutant TLR7, 6 hours incubation
Protocol: (§1) The ability of compounds to activate human TLR7 and/or TLR8 was assessed in a cellular reporter assay using HEK293 cells transiently transfected with a TLR7 or TLR8 expression vector and NFκB-luc reporter construct. In one instance the TLR expression construct expresses the respective wild type sequence or a mutant sequence comprising a deletion in the second leucine-rich repeat of the TLR.
(§2) Briefly, HEK293 cells were grown in culture medium (DMEM supplemented with 10% FCS and 2 mM Glutamine). For transfection of cells in 10 cm dishes, cells were detached with Trypsin-EDTA, transfected with a mix of CMV-TLR7 or TLR8 plasmid (750 ng), NFκB-luc plasmid (375 ng) and a transfection reagent and incubated 24 hours at 37° C. in a humidified 5% CO2 atmosphere. Transfected cells were then detached with Trypsin-EDTA, washed in PBS and resuspended in medium to a density of 1.67×10^5 cells/mL. Thirty microliters of cells were then dispensed into each well in 384-well plates, where 10 μL of compound in 4% DMSO was already present. Following 6 hours incubation at 37° C., 5% CO2, the luciferase activity was determined by adding 15 μl of Steady Lite Plus substrate (Perkin Elmer) to each well and readout performed on a ViewLux ultraHTS microplate imager (Perkin Elmer). Dose response curves were generated from measurements performed in quadruplicates. Lowest effective concentrations (LEC) values, defined as the concentration that induces an effect which is at least two fold above the standard deviation of the assay, were determined for each compound.

[2] = test system: HCV replicon (Huh-7 luc/neo cells); assay: Suppression of HCV replicon replication by conditioned media from PBMC; format: cell-based, HCV type 1b; conditions: Hepatitis C virus, compound concentration applied to PBMCs giving 50% reduction of replicon luciferase activity, read-out: PBMC-HUH7_EC50
Protocol: Activation of human TLR7 results in robust production of interferon by plasmacytoid dendritic cells present in human blood. The potential of compounds to induce interferon was evaluated by looking at the antiviral activity in the HCV replicon system upon incubation with conditioned media from peripheral blood mononuclear cells (PBMC). The HCV replicon assay is based on a bicistronic expression construct, as described by Lohmann et al. (Science (1999) 285: 110-113; Journal of Virology (2003) 77: 3007-15 3019) with modifications described by Krieger et al. (Journal of Virology (2001) 75: 4614-4624). The assay utilized the stably transfected cell line Huh-7 luc/neo harboring an RNA encoding a bicistronic expression construct comprising the wild type NS3-NS5B regions of HCV type 1b translated from an Internal Ribosome Entry Site (IRES) from encephalomyocarditis virus (EMCV), preceded by a reporter gene (Firefly-luciferase) and a selectable marker gene (neoR, neomycine phosphotransferase). The construct is flanked by 5′ and 3′ NTRs (non-translated regions) from HCV type 1b. Continued culture of the replicon cells in the presence of G418 (neoR) is dependent on the replication of the HCV RNA. The stably transfected replicon cells that replicate HCV RNA autonomously and to high levels, encoding inter alia luciferase, were used for profiling of the conditioned cell culture media.
Briefly, PBMCs were prepared from buffy coats of at least two donors using a standard Ficoll centrifugation protocol. Isolated PBMCs were resuspended in RPMI medium supplemented with 10% human AB serum and 2×10^5 cells/well were dispensed into 384-well plates containing compounds (70 μL total volume). After overnight incubation, 10 μL of supernatant was transferred to 384-well plates containing 2.2×10^3 replicon cells/well in 30 μL (plated the day before). Following 24 hours of incubation, replication was measured by assaying luciferase activity using 40 μL/well Steady Lite Plus substrate (Perkin Elmer) and measured with ViewLux ultraHTS microplate imager (Perkin Elmer). The inhibitory activity of each compound on the Huh7-luc/neo cells were reported as EC50 values, defined as the compound concentration applied to the PBMCs resulting in a 50% reduction of luciferase activity which in turn indicates the degree of replication of the replicon RNA on transfer of a defined amount of PBMC culture medium. Recombinant interferon α-2a (Roferon-A) was used as a standard control compound.

[3] = molecular target: T1, human TLR8 (Homo sapiens, UniProt Q9NR97); assay: TLR8 wild type NFκB-luc cellular reporter assay; format: cell-based; design: unit not given here; conditions: HEK293 NFκB-luc reporter, 6 hours incubation; for TLR8-wt (LEC): second part of table
T1 construct: expressed in transfected cells; host or cells: HEK293
T1 sequence (Q9NR97 27-1041): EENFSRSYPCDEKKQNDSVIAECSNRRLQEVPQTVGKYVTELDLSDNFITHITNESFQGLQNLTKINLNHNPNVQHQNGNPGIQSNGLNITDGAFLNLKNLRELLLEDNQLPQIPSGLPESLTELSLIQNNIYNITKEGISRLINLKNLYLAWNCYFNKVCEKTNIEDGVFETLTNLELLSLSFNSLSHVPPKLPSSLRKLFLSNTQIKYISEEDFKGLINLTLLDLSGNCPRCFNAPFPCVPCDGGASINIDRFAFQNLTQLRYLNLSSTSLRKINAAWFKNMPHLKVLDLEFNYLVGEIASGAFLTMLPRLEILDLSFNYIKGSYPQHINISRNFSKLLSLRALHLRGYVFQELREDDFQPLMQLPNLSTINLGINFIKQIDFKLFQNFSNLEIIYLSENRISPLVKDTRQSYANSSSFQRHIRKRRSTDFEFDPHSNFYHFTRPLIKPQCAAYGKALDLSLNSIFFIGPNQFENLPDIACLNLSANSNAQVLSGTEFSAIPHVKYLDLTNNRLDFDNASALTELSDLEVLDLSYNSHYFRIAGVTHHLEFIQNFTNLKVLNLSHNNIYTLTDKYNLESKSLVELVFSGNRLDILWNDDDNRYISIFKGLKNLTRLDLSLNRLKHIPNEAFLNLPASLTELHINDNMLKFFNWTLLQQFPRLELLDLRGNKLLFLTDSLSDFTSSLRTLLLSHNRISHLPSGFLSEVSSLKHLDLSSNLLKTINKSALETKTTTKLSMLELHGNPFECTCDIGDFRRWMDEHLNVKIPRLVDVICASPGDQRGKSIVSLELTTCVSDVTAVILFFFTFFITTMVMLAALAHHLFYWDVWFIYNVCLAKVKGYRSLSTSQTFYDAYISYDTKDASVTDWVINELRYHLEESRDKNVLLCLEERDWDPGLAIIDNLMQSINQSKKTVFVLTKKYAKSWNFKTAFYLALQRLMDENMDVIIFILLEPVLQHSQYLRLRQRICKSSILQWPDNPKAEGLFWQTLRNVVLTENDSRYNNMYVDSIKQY
Protocol: as §1, §2

[4] = test system: human TLR8 mutant (dIRR2); assay: TLR8 mutant (deletion in second leucine-rich repeat) NFκB-luc cellular reporter assay; format: cell-based; design: unit not given here; conditions: HEK293 NFκB-luc reporter, mutant TLR8, 6 hours incubation
Protocol: as §1, §2

[5] = molecular target: T2, human TLR7 (Homo sapiens, UniProt Q9NYK1); assay: TLR7 wild type NFκB-luc cellular reporter assay; format: cell-based; design: unit not given here; conditions: HEK293 NFκB-luc reporter, 6 hours incubation; for TLR7-wt (LEC): second part of table
T2 construct: expressed in transfected cells; host or cells: HEK293
T2 sequence (Q9NYK1 27-1049): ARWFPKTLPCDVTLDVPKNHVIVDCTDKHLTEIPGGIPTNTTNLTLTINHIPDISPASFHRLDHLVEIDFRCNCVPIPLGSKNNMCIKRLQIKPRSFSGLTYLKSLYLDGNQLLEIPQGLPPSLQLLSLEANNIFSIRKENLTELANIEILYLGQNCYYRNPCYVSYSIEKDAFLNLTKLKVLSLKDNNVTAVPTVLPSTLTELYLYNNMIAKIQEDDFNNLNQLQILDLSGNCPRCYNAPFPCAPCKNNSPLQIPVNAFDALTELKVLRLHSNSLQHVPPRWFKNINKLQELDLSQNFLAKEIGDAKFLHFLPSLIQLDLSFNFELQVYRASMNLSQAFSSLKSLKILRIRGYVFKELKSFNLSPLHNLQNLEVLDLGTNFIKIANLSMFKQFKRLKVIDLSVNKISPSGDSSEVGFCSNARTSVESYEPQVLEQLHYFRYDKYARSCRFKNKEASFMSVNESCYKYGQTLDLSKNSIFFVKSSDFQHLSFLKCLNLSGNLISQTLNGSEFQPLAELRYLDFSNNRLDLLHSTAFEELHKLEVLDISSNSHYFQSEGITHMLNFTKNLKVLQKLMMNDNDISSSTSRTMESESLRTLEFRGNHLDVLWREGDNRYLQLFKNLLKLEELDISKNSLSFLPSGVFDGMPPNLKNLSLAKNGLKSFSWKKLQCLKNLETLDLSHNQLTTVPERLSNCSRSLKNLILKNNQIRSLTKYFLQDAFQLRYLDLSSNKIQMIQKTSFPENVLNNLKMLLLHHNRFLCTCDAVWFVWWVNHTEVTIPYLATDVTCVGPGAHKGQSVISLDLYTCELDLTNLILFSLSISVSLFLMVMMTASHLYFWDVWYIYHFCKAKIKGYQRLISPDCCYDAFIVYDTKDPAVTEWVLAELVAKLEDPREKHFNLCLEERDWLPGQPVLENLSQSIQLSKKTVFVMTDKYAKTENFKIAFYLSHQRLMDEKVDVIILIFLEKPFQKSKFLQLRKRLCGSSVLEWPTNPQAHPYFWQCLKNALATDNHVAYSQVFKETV
Protocol: as §1
as §2, with “Following 6 hours incubation at 37° C., 5% CO2, the luciferase activity was determined by adding 15 μl of Steady Lite Plus substrate (Perkin Elmer) to each well and readout performed on a ViewLux ultraHTS microplate imager (Perkin Elmer).” left out

SMILES | TLR7-wt (LEC) [5] | TLR8-wt (LEC) [3] | further results
CCCCCNc1nc(N)nc2cc(OC)c(OC)cc12 [Compound 2] | – | – | TLR7-dIRR2_LEC [1]: 1.2; EC50 [2]: 4.4 µM; TLR8-wt_LEC [3]: 1.5; TLR8-dIRR2_LEC [4]: 0.6
CCCC[C@@H](CO)Nc1nc(N)nc2cc(OC)c(OC)cc12 [Compound 4] | – | – | TLR7-dIRR2_LEC [1]: 2.4; EC50 [2]: 3 µM; TLR8-wt_LEC [3]: 2.6; TLR8-dIRR2_LEC [4]: 1.7
CCC[C@@H](CCO)Nc1nc(N)nc2cc(OC)c(OC)cc12 [Compound 5] | – | – | TLR7-dIRR2_LEC [1]: 2.6; EC50 [2]: 3.3 µM; TLR8-wt_LEC [3]: 6.7; TLR8-dIRR2_LEC [4]: 2.6
CCC[C@@H](CO)Nc1nc(N)nc2cc(OC)c(OC)cc12 [Compound 6] | – | – | TLR7-dIRR2_LEC [1]: 3.4; EC50 [2]: 3 µM; TLR8-wt_LEC [3]: 4.4; TLR8-dIRR2_LEC [4]: 2.3
CCCCNc1nc(N)nc2ccccc12 [Compound 8] | – | – | TLR7-dIRR2_LEC [1]: 0.02; TLR7-wt_LEC ([5]; lowest effective concentration): 0.1; TLR8-wt_LEC [3]: 0.1; TLR8-dIRR2_LEC [4]: 0.02
CCCCNc1nc(N)nc2cccc(CCc3ccccn3)c12 [Compound 12] | 1.66 | 0.79 | –
CCCCNc1nc(N)nc2ccc(C#CC(C)O)cc12 (centres unmarked) [Compound 14] | 0.65 | 4.77 | –
CCCCNC(=O)c1cccc2nc(N)nc(NCCCC)c12 [Compound 15] | 0.49 | 3.27 | –
CCCCNc1nc(N)nc2ccc(CCC(C)O)cc12 (centres unmarked) [Compound 16] | 0.57 | 0.73 | –
CCCCNc1nc(N)nc2ccc(C#N)cc12 [Compound 19] | >25 | 7.05 | –
CCCCNc1nc(N)nc2ccc(-c3cnn(C)c3)cc12 [Compound 20] | >25 | 2.55 | –
CCCCNc1nc(N)nc2ccc(C(C)=O)cc12 [Compound 22] | 6.07 | 1.95 | –
CCCCNc1nc(N)nc2ccc(C(C)O)cc12 (centres unmarked) [Compound 23] | 10.23 | 5.05 | –
CCCCNc1nc(N)nc2cc(C(=O)Nc3cccnc3)ccc12 [Compound 90] | 0.42 | – | –
CCCCNc1nc(N)nc2cc(C(=O)N3CCOCC3)ccc12 [Compound 91] | 0.13 | 0.53 | –
CCCCNc1nc(N)nc2cc(C(=O)NCCN(C)C)ccc12 [Compound 92] | 1.53 | 5.87 | –
CCCCNc1nc(N)nc2cc(C(=O)NCc3ccccn3)ccc12 [Compound 93] | 0.77 | 1.69 | –
CCCCNc1nc(N)nc2cc(C(=O)N(C)C)ccc12 [Compound 94] | 0.07 | 0.48 | –
CCCCNc1nc(N)nc2cc(C(=O)NCc3ccccc3)ccc12 [Compound 95] | 0.54 | 0.42 | –
CCCCNc1nc(N)nc2cccc(CCc3ccc(OC)cc3)c12 [Compound 96] | 2.7 | 16 | –
CCCCNc1nc(N)nc2cccc(CCc3cccc(OC)c3)c12 [Compound 97] | 0.6 | 0.83 | –
CCCCNc1nc(N)nc2cccc(OCC(=O)OC)c12 [Compound 98] | 0.21 | 0.31 | –
